For 100 compounds, cytotoxicity results are on record in ChEMBL document CHEMBL3507680, “University of Dundee, Gates Library screen for HepG2 cell viability”.

The data set in a line: Human HepG2 cell viability assay in 384 well format. The class given is toxicity, cell-based. Set-up: dose 125 nL, time 70.5 hour; concentration not given beside the values. The settings on record: HepG2 cells, read-out: Inhibition.
On to `Cn1ccnc1CN1C[C@H](N2CCOCC2)[C@@H]2OCCC[C@@H]21`, for which the cytotoxicity at 70.5 h was -3.14%. Under `Cc1nc(N2CCC3(CCOC3)C2)c2cc[nH]c2n1` (stereo not given) stands 27.9%; under `CC(C)c1nn(C)c(N(C)C)c1CNC1CCOc2c(F)cccc21` (stereo not given), -2%; under `O=S(=O)(NCc1ccccc1Cn1cncn1)N1CCCCCC1`, -7.52%. For the compound `CN1CCN(Cc2cnc3n2CCN(C(=O)c2ccoc2)C3)CC1`, the cytotoxicity at 70.5 h is -7.31%. For the compound `COCCCNc1nc(CNC(=O)C2CCC2)cc(-c2ccco2)n1`, the cytotoxicity at 70.5 h was -5.78%. On to `COC(=O)c1ccc(N2CCN(C(=O)c3ccco3)C(C)C2)cc1` (stereo not given), for which the cytotoxicity at 70.5 h is -3.57%. Under `CN1C(=O)C(c2cccnc2)CC12CCN(Cc1nccs1)CC2` (stereo not given) stands 1.71%; under `O=C(c1ccoc1)N1CCC(O)(C(F)(F)F)CC1`, -12.1%; under `O=C(CCc1nc(C2CC2)no1)c1ccccc1`, -16%. Under `O=C(c1cc[nH]n1)N1CCC2(CC1)CC(Oc1cccnc1)CO2` (stereo not given) stands 8.68%; under `COc1cc(F)c(NCc2nc3ccccc3n2C)cc1OC`, -15.9%; under `Cc1nc2c(C)cccc2cc1C(=O)N1CCC2(CCN(C)CC2)C1`, 3.12%.

Turning to `CCOc1ncccc1C(=O)NC1CCCN(c2ncccn2)C1` (stereo not given), the cytotoxicity at 70.5 h is 1.87%. Under `Cc1noc(CCCC(=O)NC(C)c2cccnc2)n1` (stereo not given) stands 0.606%; under `Cn1c2ccccc2c2ncn(CCCN3CCOCC3)c(=O)c21`, 12.2%.

For the compound `O=C(CNC1(c2ccc(Cl)cc2)CCOCC1)NC1CCCC1`, the cytotoxicity at 70.5 h came to 1.78%. Under `NCc1cn(-c2ccccc2C(=O)NCc2ccccc2)cn1` stands -18.9%. Under `CN1CCC(CNC(=O)c2ccc3cccc(Cl)c3n2)C1` (stereo not given) stands -6.3%. For the compound `COCCCNC(=O)c1nnsc1-c1ccccc1`, the cytotoxicity at 70.5 h is -14.7%. Under `COCCN(Cc1ccccn1)Cc1sccc1C` stands -10.3%; under `CC1CN(C(=O)c2cscn2)c2ccccc2S1` (stereo not given), 21%; under `CC(C)N1CCc2ncn(C)c2C1C(=O)NCCN1CCCC1` (stereo not given), -8.41%. Consider `Cc1occc1C(=O)N1CCC2(CCC(C(=O)NCC3CC3)O2)CC1` (stereo not given), for which the cytotoxicity at 70.5 h was -12.7%. Take `O=C(CCO)N1CCOC2(CCCN(C(=O)c3ccco3)C2)C1` (stereo not given): the cytotoxicity at 70.5 h is -7.04%. For the compound `Cc1ccc(CNC(=O)CN2CCN(CCO)CC2)s1`, the cytotoxicity at 70.5 h is -6.79%. `CCN1CCN(C(=O)C2CC(=O)N(c3cnn(C(C)C)c3)C2)CC1` (stereo not given): the cytotoxicity at 70.5 h was -1.53%. In the case of `O=C(c1ccncc1)N1CCC2(CC1)CC(Oc1cccnc1)CO2` (stereo not given), the cytotoxicity at 70.5 h was -14.5%. Under `O=C(O)c1cc(-c2cccnc2)cc(S(=O)(=O)N2CCCCCC2)c1` stands -11.7%; under `O=C(Cc1ccc(F)cc1Cl)N1C[C@@H](CN2CCC(O)CC2)[C@@H](CO)C1`, -3.43%; under `Oc1cc(CN2CCCCC2c2cccnc2)nc2c(F)cccc12` (stereo not given), -2.95%. Under `COc1ccccc1C(O)CNC(=O)NCc1csc(C)n1` (stereo not given) stands 1.19%; under `CN1[C@@H](CCC(=O)NCc2ccc(F)cc2)CNC(=O)[C@H]2NCC[C@H]21`, -2.11%. On to `CCS(=O)(=O)N1CCN(CCOC)c2ncccc2C1`, for which the cytotoxicity at 70.5 h was -4.33%. Under `CC(C)C(=O)N1CCN(C(=O)c2cc(C(C)C)no2)[C@H]2CS(=O)(=O)C[C@H]21` stands -0.523%; under `CO[C@H]1CNC[C@@H]1NC(=O)c1cc(C)nc2c(C)cc(C)cc12`, 2.49%. `CCCN1CCCC2(CCN(Cc3noc(C4CCCC4)n3)C2)C1=O` (stereo not given): the cytotoxicity at 70.5 h was found to be 3.33%. Under `Cc1ccccc1C(=O)N1C[C@@H]2COC[C@]2(COCc2cccnc2)C1` stands 2.96%. Under `CC(Cn1ccnc1)NC(=O)NCCN1CCCCCC1=O` (stereo not given) stands -4.74%; under `Cc1cc(C)n(CCC(=O)N2CCCCC2c2nccs2)n1` (stereo not given), 11.9%; under `CCOCC1CN(C(=O)Cc2ccccn2)Cc2c1cnn2CC` (stereo not given), 23.4%. Consider `COc1ccc(CN2CCOC[C@H](Oc3cccnc3)C2)cc1`, for which the cytotoxicity at 70.5 h was determined as 4.36%. Under `Cc1cccn2cc(C[S+]([O-])Cc3noc(C(C)C)n3)nc12` (stereo not given) stands -1.76%; under `CN1CCCC1CNC(=O)CCCOCc1ccccc1` (stereo not given), -3.14%; under `Cc1cnn(CC2CCCN2CC(=O)NCc2ccccn2)c1` (stereo not given), -3.32%.

In the case of `COCCCNC(=O)Cc1cc(-c2ccc3c(c2)OCO3)on1`, the cytotoxicity at 70.5 h was 13.4%.

As for `O=C(c1n[nH]c(=O)c2ccccc12)N1CCCC1Cn1cccn1` (stereo not given), the cytotoxicity at 70.5 h was -8.16%.

On to `Cc1nccn1[C@@H]1CC[C@@H](N(C)S(=O)(=O)c2ccccc2F)[C@H]1O`, for which the cytotoxicity at 70.5 h was -3.2%.

`Oc1ccccc1-c1cc(-c2nc(C3CC3)n[nH]2)[nH]n1`: the cytotoxicity at 70.5 h was -6.44%.

For `Cn1cc(CNCC2(O)CCCN(Cc3ccc(F)c(F)c3)C2=O)cn1` (stereo not given), the cytotoxicity at 70.5 h was -3.67%.

Regarding `CC/C=C(/C)C(=O)N1CSCC1C(=O)NC1=NCCS1` (stereo not given), the cytotoxicity at 70.5 h was -7.18%. Under `Cc1cc(=O)n(CC(=O)Nc2cccc(Cl)c2)nc1C` stands 21.6%; under `COc1ccc(CCNC(=O)c2ccc(=O)n(C)c2)c(Cl)c1`, -7.56%. Turning to `Cc1nc(N2CCN(C(=O)c3ccccc3)CC2)c2c(n1)c(C)nn2C`, the cytotoxicity at 70.5 h is -2.09%. On to `COc1nc(C)ccc1CNc1cc(N2CCCC2CO)ncn1` (stereo not given), for which the cytotoxicity at 70.5 h was found to be 7.33%. `Cc1c(-c2cc(C(F)F)nc3sc(C(N)=O)c(N)c23)cnn1C`: the cytotoxicity at 70.5 h was -1.99%.

`Cc1nc(C2CN(Cc3ccc(F)cc3Br)CCO2)no1` (stereo not given): the cytotoxicity at 70.5 h is -5.56%. Turning to `Cc1noc(-c2ccc(N3CCCC(C(=O)N4CCSCC4)C3)nc2)n1` (stereo not given), the cytotoxicity at 70.5 h was 3.88%.

For `Cc1ccc(S(=O)(=O)NCCNc2cc(-n3cccc3)ncn2)c(C)c1`, the cytotoxicity at 70.5 h is -0.584%. As for `CCc1nc(CN2CCCN(C(=O)c3ccco3)CC2)cs1`, the cytotoxicity at 70.5 h worked out at 16.2%.

`CN(C)C(=O)CCCn1ccc(NC(=O)NCc2cccc(F)c2)n1`: the cytotoxicity at 70.5 h is -16.5%. Under `Cn1ccnc1C(=O)N1CCCC(Cn2cc(CO)nn2)C1` (stereo not given) stands -1.24%; under `O=C(N[C@@H]1CN[C@H]2CCCO[C@H]21)c1cnccn1`, -0.404%. Under `O=C(NCCCN1CCCC1=O)c1ccc(-n2ccc3ccccc32)s1` stands 1.6%; under `O=C(NCc1cnc2n1CCN(Cc1nccs1)CC2)C1CCC1`, -2.78%; under `CC(C)c1cc(CN2CCC(N)CC2)no1`, -6.06%. Under `Cc1ccc(C(NC(=O)CN2CCc3c(ncn3C)C2)C2CC2)cc1` (stereo not given) stands -16.3%; under `O=C(c1ccc(SC(F)(F)F)cc1)N1CCOCC1c1ncon1` (stereo not given), -5.57%. Regarding `O=C(CCc1cc2n(n1)CCNC2)NCCS(=O)(=O)N1CCCC1`, the cytotoxicity at 70.5 h was -11.2%. Under `CCc1nnc(CNC(=O)CCCN2CCCCC2)s1` stands -0.919%. Under `Cn1nc(C(=O)NN2CCOCC2)c(Cl)c1C(F)(F)F` stands -3.83%; under `CCn1cc(CN2CCCN(C(=O)CCc3ccncc3)CC2)cn1`, 25.1%; under `COCCC(=O)NCCn1nc(C2CCNC2)c2cccnc21` (stereo not given), 14.1%. In the case of `CC(C)(C)C(=O)N1CCCC1c1nccnc1Cl` (stereo not given), the cytotoxicity at 70.5 h is -8.54%. In the case of `CCOC(=O)N1CC(C)=C(C)CN1C(=O)Nc1ccc(Cl)c(Cl)c1`, the cytotoxicity at 70.5 h is 6.17%. Take `CC(=O)N1CCCC(c2ccnc(Nc3cnccn3)n2)C1` (stereo not given): the cytotoxicity at 70.5 h was -7.2%. Under `Cc1ncsc1CN1Cc2cn(C)nc2C(COCC2CC2)C1` (stereo not given) stands 11.6%; under `CC(C)COC[C@H]1CC[C@H]2[C@H](CCN2C(=O)c2ccncc2F)O1`, -0.218%.

With `OCCC1CN(c2nc(-c3cccnc3)nc3c2CCNCC3)CCO1` (stereo not given), the cytotoxicity at 70.5 h is -1.49%. Under `Nc1ncc(C(=O)N2CCC3(CCCO3)CC2)c(-c2ccccc2)n1` stands -2.3%; under `c1ccc(Oc2ncccc2CNCc2ccccn2)cc1`, -4.5%. Under `CCc1cc(C(=O)NCC2CCN(Cc3cccc(C)n3)C2)on1` (stereo not given) stands -1.06%. As for `COCC(=O)N1CC[C@H]2C[C@@H](c3nnc(C4CC4)o3)O[C@@H]2C1`, the cytotoxicity at 70.5 h is 5.55%. Under `O=C(c1ccc(N2CCOCC2)nc1)N1CCCC(n2cccn2)C1` (stereo not given) stands -13.9%; under `CC/N=c1\c(NC(=O)C(C)(C)C)c(O)oc2ccccc12`, 22.9%; under `CCc1nc(C2CCCN2C(=O)CCCn2cncn2)no1` (stereo not given), -8.49%. Under `CCNC(=O)NCc1ccnc(N(C)C)n1` stands -5.28%. Under `Cc1ccc(C(=O)NCC(O)c2cccc(F)c2)c(=O)[nH]1` (stereo not given) stands -0.0981%; under `CC(C)(C)NS(=O)(=O)c1ccccc1CNCc1ccccc1`, -5.72%. Regarding `COCCOCC(=O)Nc1ccccc1F`, the cytotoxicity at 70.5 h was -6.23%. With `N#Cc1ccc(CNc2cccc(C(=O)N3CCOCC3)c2)cc1`, the cytotoxicity at 70.5 h was -9.56%.

For `O=C(c1cc(Br)c[nH]1)N1CCN(Cc2ccco2)CC1`, the cytotoxicity at 70.5 h was 5.49%.

For the compound `CCOc1ccccc1N1CCN(C(=O)NCc2cc[nH]n2)CC1`, the cytotoxicity at 70.5 h was 18.3%. As for `Cc1noc([C@H]2CC[C@@H]3[C@@H](CCN3c3ncccn3)O2)n1`, the cytotoxicity at 70.5 h was -6.01%. Under `CCCc1nc(CNC(C)Cn2cccn2)cs1` (stereo not given) stands 3.08%. Under `O=C(NCc1ccc(-n2cncn2)nc1)c1ccoc1` stands 22.2%; under `CCC(CC)C(O)CNC(=O)Nc1cc(C)nn1C` (stereo not given), -17.8%; under `Cc1cc(C)n(-c2ccc(C(=O)NCC(CO)Cc3cccs3)cc2)n1` (stereo not given), -8%. Under `COc1ccccc1CN(C)c1nc2c(cnn2C)c(=O)[nH]1` stands -10.3%; under `CCN1C[C@@H]2[C@@H](OC)CCN(C(=O)Cc3ccsc3)[C@@H]2C1`, -5.4%.
